Source: patent publication US20110159515A1, “COMPOSITIONS AND METHODS FOR THE RAPID GROWTH AND DETECTION OF MICROORGANISMS” (SOLUS SCIENTIFIC SOLUTIONS LIMITED, priority 2008, published 2011)

How the values were obtained:
S. aberdeen [1] = assay: Direct binding Salmonella assay (chemiluminescence immunosorbent)
Method: After 5 hours of culture, a 2 ml aliquot of the sample was removed and SDS was added to a final concentration of 0.5% (w/v). The sample was heated to 100° C. for 5 minutes and allowed to cool. One hundred microlitres of each test sample was added directly to a well of a solid white 96 well high binding microtitre plate (Greiner Bio One) and incubated at 37° C. for 30 minutes. During incubation, the lipid A portion of the LPS binds to the surface of the plate via non-covalent hydrophobic interactions (FIG. 1a (1), FIG. 1b(1)).
The final concentration of antibody per well was 50 ng. The plate-bound sample (Salmonella LPS/core oligosaccharide) and antibody were incubated in the coated wells for 30 minutes as 37° C. Following incubation, plates were washed three times in wash buffer and pat dried prior to detection (FIG. 1a(2), FIG. 1b(2)).
When the anti-Salmonella is directly labelled with acridinium ester, plates were placed into a luminometer. 30 μl of trigger solution A and 60 μl of trigger solution B was added to each well of the microtitre plate to initiate light output from conjugated acridinium ester (FIG. 1a(3)). The luminometer settings were as follows:
When the anti-Salmonella antibody is not labelled, a second binding member, a goat anti-mouse IgG2b conjugate is used. Post column IgG2b was diluted 1:100 in a diluent comprising 3% (w/v) non-fat milk powder and 0.05% (v/v) Tween 20 and 100 ul of this solution was added to each well of the plate (FIG. 1b(3)). Following incubation at 37° C. for 60 minutes the plate was washed four times in wash buffer, dried and read as above (FIG. 1b(4)).
The wells of an assay plate are coated with standard concentrations of bacteria for 1 hour at 37° C. These standard concentrations are: 10^6, 10^5, 5×10^4, 2.5×10^4, 10^4 and 5×10^3 and blank wells containing 10^6 E. coli. The fractions to be tested are diluted 1:100 in assay buffer and […] is added to each well and incubated at 37° C. for 20 minutes. The wells are then read on the luminometer, as above.

E. coli = assay: as above
S. aberdeen [2] = assay: Direct binding Salmonella assay on food cultures; conditions: white plate, Lucy 1
Method: 25 g of a food sample were added to 225 ml culture medium according to the first aspect of the invention. Alternatively a surface swab may be taken from a 10×10 cm area on a carcass and cultured in 2-5 ml culture medium according to the first aspect of the invention. Specifically the culture medium comprised 1% peptone, 8 g/L sodium tetrathionate and 0.15 mg/L brilliant green. […]
The sample was heated to 100° C. for 5 minutes and allowed to cool. One hundred microlitres of each test sample was added directly to a well of a solid white 96 well high binding microtitre plate (Greiner Bio One) and incubated at 37° C. for 30 minutes. During incubation, the lipid A portion of the LPS binds to the surface of the plate via non-covalent hydrophobic interactions (FIG. 1a (1), FIG. 1b(1)). Following incubation the plate was emptied and the wells washed three times with a wash buffer comprising 0.01M sodium phosphate buffer, pH 7.4, containing 0.147M NaCl and 0.05 (v/v) Tween 20.
White Plate read on Lucy 1 luminometer

Q: For `CCCCCCCCCCCCOS(=O)(=O)[O-].[Na+]` [SDS, sodium dodecyl sulphate], which “signal, direct binding Salmonella assay” value (S. aberdeen [1]; 0.5% SDS (second block), conjugate 1:100, 5 × 10^4 S. aberdeen, black and white plates) is on record?
A: 2,213 ± 170

Q: And the “signal, release and detection of core oligosaccharide” value (S. aberdeen [1]; 0.5% SDS, 10^4 bacteria (species not given))?
A: 495603 relative light units

Q: What about the “enhancement of binding between binding member (antibody) and epitope” value (S. aberdeen [1]; direct assay) of the same molecule?
A: ≤ 10 fold

Q: What about the “signal, direct binding Salmonella assay” value (E. coli; 0% SDS, conjugate 1:100, 10^6 E. coli, black and white plates) of the same molecule?
A: 579 ± 37

Q: What about the “signal, direct binding Salmonella assay” value (E. coli; 0.1% (w/v) SDS, conjugate 1:100, 10^6 E. coli, white plate, Lucy I) of the same molecule?
A: 4,151 ± 256^

Q: What about the “signal, direct binding Salmonella assay” value (E. coli; 0.1% SDS (first block), conjugate 1:100, 10^6 E. coli, black and white plates) of the same molecule?
A: 579 ± 37

Q: And the “signal, direct binding Salmonella assay” value (E. coli; 0.1% SDS (second block), conjugate 1:100, 10^6 E. coli, black and white plates)?
A: 658 ± 108

Q: What about the “signal, direct binding Salmonella assay” value (E. coli; 0.2% (w/v) SDS, conjugate 1:100, 10^6 E. coli, white plate, Lucy I) of the same molecule?
A: 3,322 ± 479

Q: And the “signal, direct binding Salmonella assay” value (E. coli; 0.3% SDS, conjugate 1:100, 10^6 E. coli, white plate, Lucy I)?
A: 2,491 ± 107

Q: And the “signal, direct binding Salmonella assay” value (E. coli; 0.4% SDS, conjugate 1:100, 10^6 E. coli, white plate, Lucy I)?
A: 3,197 ± 5

Q: And the “signal, direct binding Salmonella assay” value (E. coli; 0.5% (w/v) SDS (first block), conjugate 1:100, 10^6 E. coli, black and white plates)?
A: 684 ± 88

Q: What about the “signal, direct binding Salmonella assay” value (E. coli; 0.5% (w/v) SDS, conjugate 1:50, E. coli 10^6, black and white plate, tube luminometer) of the same molecule?
A: 958 ± 242

Q: And the “signal, direct binding Salmonella assay” value (E. coli; 0.5% SDS (second block), conjugate 1:100, 10^6 E. coli, black and white plates)?
A: 714 ± 74

Q: What about the “signal, direct binding Salmonella assay” value (E. coli; 0.5% SDS, conjugate 1:100, 10^6 E. coli, black and white plate, tube luminometer) of the same molecule?
A: 922 ± 78

Q: What about the “signal, direct binding Salmonella assay” value (E. coli; 0.5% SDS, conjugate 1:100, 10^6 E. coli, white plate, Lucy I) of the same molecule?
A: 4,574 ± 1,885

Q: And the “signal, direct binding Salmonella assay” value (E. coli; 0.5% SDS, conjugate 1:150, 10^6 E. coli, black and white plate, tube luminometer)?
A: 707 ± 11

Q: What about the “signal, food culture” value (S. aberdeen [2]; 0.1% SDS, +ve Chicken (10 C.F.U. S. aberdeen, 18 hours)) of the same molecule?
A: 131,488 ± 15,357

Q: And the “signal, food culture” value (S. aberdeen [2]; 0.1% SDS, +ve Drinking Chocolate (10 C.F.U. S. aberdeen, 18 hours))?
A: 45,626 ± 3204

Q: What about the “signal, food culture” value (S. aberdeen [2]; 0.1% SDS, +ve Mayonnaise (10 C.F.U. S. aberdeen, 18 hours)) of the same molecule?
A: 746,670 ± 86,449

Q: What about the “signal, food culture” value (S. aberdeen [2]; 0.1% SDS, −ve Chicken) of the same molecule?
A: 3426 ± 316

Q: What about the “signal, food culture” value (S. aberdeen [2]; 0.1% SDS, −ve Drinking Chocolate) of the same molecule?
A: 1315 ± 63

Q: What about the “signal, food culture” value (S. aberdeen [2]; 0.1% SDS, −ve Mayonnaise) of the same molecule?
A: 4180 ± 610

Q: What about the “signal, food culture” value (S. aberdeen [2]; 0.5% SDS, +ve Chicken (10 C.F.U. S. aberdeen, 18 hours)) of the same molecule?
A: 36,770 ± 2,020

Q: And the “signal, food culture” value (S. aberdeen [2]; 0.5% SDS, +ve Drinking Chocolate (10 C.F.U. S. aberdeen, 18 hours))?
A: 110,756 ± 5737^

Q: What about the “signal, food culture” value (S. aberdeen [2]; 0.5% SDS, +ve Mayonnaise (10 C.F.U. S. aberdeen, 18 hours)) of the same molecule?
A: 387,924 ± 106,504

Q: What about the “signal, food culture” value (S. aberdeen [2]; 0.5% SDS, −ve Chicken) of the same molecule?
A: 4494 ± 904

Q: What about the “signal, food culture” value (S. aberdeen [2]; 0.5% SDS, −ve Drinking Chocolate) of the same molecule?
A: 3266 ± 142

Q: And the “signal, food culture” value (S. aberdeen [2]; 0.5% SDS, −ve Mayonnaise)?
A: 3260 ± 733
